Columns and labels:
[1] = tested on: PBMC (polyclonal gluten-specific T cells) of paediatric and adult CD patients; details: corresponding adult data shown for comparison (14); cited from earlier work
[2] = tested on: PBMC (polyclonal gluten-specific T cells) of paediatric and adult CD patients; test: IFN-γ ELISpot of PBMC after 3 day oral wheat challenge (SFU, % of maximal peptide response, dominance scores, EC50; Examples 5-6); assay type: cell-based, human; details: for Dominance score 3-5yrs (n = 9): CD children 3-5yrs, n = 9, following wheat challenge; for Dominance score 3-5yrs (n = 9) / Dominance score 6-10yrs (n = 10) / Dominance score 11-18yrs (n = 11): mean percentage of maximal peptide response; for Dominance score 6-10yrs (n = 10): CD children 6-10yrs, n = 10, following wheat challenge; for Dominance score 11-18yrs (n = 11): CD children 11-18yrs, n = 11, following wheat challenge; for Dominance score Mean all ages: CD children, following wheat challenge (Table 9); for Dominance scores 3-5 yrs: children with celiac disease 3-5 yrs after wheat challenge (Table 14); for Dominance scores 6-10 yrs: children with celiac disease 6-10 yrs after wheat challenge (Table 14); for Dominance scores 11-18 yrs: children with celiac disease 11-18 yrs after wheat challenge (Table 14); for Dominance scores Mean all ages: mean of all subjects (Table 14); for IFN-γ ELISpot response: after oral wheat challenge

Which “Dominance scores 18+ yrs” value [1] does the source give for W05 (QPFPQPEQPFSQQ) [Peptide W05] here?
Its value is 15.

And the “Dominance score 3-5yrs (n = 9)” value [2]?
The value was 23.4.

And the “Dominance score 6-10yrs (n = 10)” value [2]?
Its value is 33.3.

And the “Dominance score 11-18yrs (n = 11)” value [2]?
The value was 27.1.

What about the “Dominance score Mean all ages” value [2] of the same substance?
Its value is 28.6.

And the “Dominance scores 3-5 yrs” value [2]?
Its value is 23.

What about the “Dominance scores 6-10 yrs” value [2] of the same substance?
Its value is 33.

And the “Dominance scores 11-18 yrs” value [2]?
Its value is 27.

What about the “Dominance scores Mean all ages” value [2] of the same substance?
Its value is 28.

With “QPFPQPEQPFPWQ [Peptide W03, contains DQ2.5-glia-w1 and w2]” as the substance, how does the “Dominance scores 18+ yrs” value [1] read?
Its value is 35.

And the “magnitude of T cell responses, HLA-DQ2.5 homozygous vs heterozygous” value [2]?
The value was “significantly greater”.

What about the “Dominance score 3-5yrs (n = 9)” value [2] of the same substance?
Its value is 66.6.

And the “Dominance score 6-10yrs (n = 10)” value [2]?
Its value is 51.5.

What about the “Dominance score 11-18yrs (n = 11)” value [2] of the same substance?
Its value is 46.5.

And the “Dominance score Mean all ages” value [2]?
Its value is 54.2.

What about the “dominance hierarchy across all age groupings” value ([2]; Example 5) of the same substance?
Its value is “most dominant three peptides”.

What about the “CD children responding (polyclonal T cells after oral wheat challenge)” value ([2]; Example 5, n=22) of the same substance?
Its value is 68.2%.

What about the “dominance hierarchy across all age groups” value ([2]; Example 6) of the same substance?
Its value is “most dominant four peptides”.

What about the “CD children responding (polyclonal T cells induced by oral wheat challenge)” value ([2]; Example 6, n=22) of the same substance?
Its value is 68%.

What about the “response to native vs deamidated form” value ([2]; all age groups) of the same substance?
Its value is “Deamidation enhanced the response”.

And the “Dominance scores 3-5 yrs” value [2]?
Its value is 65.

And the “Dominance scores 6-10 yrs” value [2]?
The value was 51.

What about the “Dominance scores 11-18 yrs” value [2] of the same substance?
Its value is 46.

What about the “Dominance scores Mean all ages” value [2] of the same substance?
Its value is 54.

What about the “IFN-γ ELISpot responses Day 0 prior to vs Day 6 after wheat challenge” value ([2]; p<0.05, Kruskal Wallis) of the same substance?
Its value is “Significant gluten-specific responses were observed on Day 6 only”.

And the “IFN-γ ELISpot response” value ([2]; patient A, 11-17 yrs, cut-off 10 SFU)?
The value was 5 SFU.

And the “Significant response as percentage of maximal peptide SFU” value (“Significant response as percentage” below) ([2]; patient D, max peptide 30.5 SFU)?
Its value is “′′′ (41-70% = ′′′)”.

And the “IFN-γ ELISpot response” value ([2]; patient E, H, 11-17 yrs, cut-off 10 SFU)?
Its value is 61 SFU.

And the “Significant response as percentage” value ([2]; patient E, max peptide 224 SFU)?
Its value is “′′ (21-40% = ′′)”.

And the “IFN-γ ELISpot response” value ([2]; patient F, 11-17 yrs, cut-off 10 SFU)?
Its value is 77 SFU.

What about the “Significant response as percentage” value ([2]; patient F, max peptide 178 SFU) of the same substance?
Its value is “′′′ (41-70% = ′′′)”.

What about the “IFN-γ ELISpot response” value ([2]; patient G, 11-17 yrs, cut-off 10 SFU) of the same substance?
Its value is 5 SFU.

And the “IFN-γ ELISpot response” value ([2]; patient H (HLA-DQ2.5 homozygote), 3-5yrs, cut-off 10 SFU)?
The value was 48 SFU.

What about the “IFN-γ ELISpot response” value ([2]; patient H, 11-17 yrs, cut-off 10 SFU) of the same substance?
Its value is 6 SFU.

And the “IFN-γ ELISpot response” value ([2]; patient ID not given, 11-17 yrs, cut-off 10 SFU)?
Its value is 83 SFU.

What about the “Significant response as percentage” value ([2]; patient ID not given, max peptide 95 SFU) of the same substance?
Its value is “+ (>70% = +)”.

And the “Significant response as percentage” value ([2]; patient J, max peptide 196 SFU)?
Its value is “′′′ (41-70% = ′′′)”.

And the “Significant response as percentage” value ([2]; patient K, max peptide 53 SFU)?
The value was “′′ (21-40% = ′′)”.

And the “Significant response as percentage” value ([2]; patient M, max peptide 48 SFU)?
Its value is “+ (>70% = +)”.

And the “IFN-γ ELISpot response” value ([2]; patient N, 3-5yrs, cut-off 10 SFU)?
The value was 19 SFU.

And the “Significant response as percentage” value ([2]; patient N, max peptide 19 SFU)?
The value was “+ (>70% = +)”.

And the “IFN-γ ELISpot response” value ([2]; patient P, 11-17 yrs, cut-off 21.6 SFU)?
The value was 43 SFU.

And the “Significant response as percentage” value ([2]; patient P, max peptide 64 SFU)?
Its value is “′′′ (41-70% = ′′′)”.

And the “IFN-γ ELISpot response” value ([2]; patient Q, 11-17 yrs, cut-off 10 SFU)?
Its value is 54 SFU.

What about the “Significant response as percentage” value ([2]; patient Q, max peptide 97 SFU) of the same substance?
Its value is “′′′ (41-70% = ′′′)”.

And the “IFN-γ ELISpot response” value ([2]; patient U, H, 11-17 yrs, cut-off 10 SFU)?
Its value is 34 SFU.

And the “Significant response as percentage” value ([2]; patient U, max peptide 81 SFU)?
Its value is “′′′ (41-70% = ′′′)”.

And the “IFN-γ ELISpot response” value ([2]; patient V, 6-10 yrs, cut-off 10 SFU)?
Its value is 34 SFU.

And the “Significant response as percentage” value ([2]; patient V, max peptide 35 SFU)?
Its value is “+ (>70% = +)”.

And the “IFN-γ ELISpot response” value ([2]; patient Y, 6-10 yrs, cut-off 10 SFU)?
Its value is 8 SFU.

What about the “IFN-γ ELISpot response” value ([2]; patient eleven, 6-10 yrs, cut-off 10 SFU) of the same substance?
The value was 6 SFU.

And the “Significant response as percentage” value ([2]; patient five, max peptide 48 SFU)?
Its value is “+ (>70% = +)”.

What about the “IFN-γ ELISpot response” value ([2]; patient four, 3-5yrs, cut-off 10 SFU) of the same substance?
The value was 18 SFU.

And the “Significant response as percentage” value ([2]; patient four, max peptide 44 SFU)?
The value was “′′′ (41-70% = ′′′)”.

What about the “IFN-γ ELISpot response” value ([2]; patient seven, 6-10 yrs, cut-off 10.5 SFU) of the same substance?
Its value is 4 SFU.

What about the “IFN-γ ELISpot response” value ([2]; patient ten, 3-5yrs, cut-off 10 SFU) of the same substance?
Its value is 8 SFU.

And the “IFN-γ ELISpot response” value ([2]; patient three, 6-10 yrs, cut-off 10.5 SFU)?
The value was 13 SFU.

What about the “IFN-γ ELISpot response” value ([2]; patient twelve, 11-17 yrs, cut-off 10 SFU) of the same substance?
The value was 17 SFU.

What about the “IFN-γ ELISpot response” value ([2]; patient two, 3-5yrs, cut-off 10 SFU) of the same substance?
The value was 60 SFU.

And the “Significant response as percentage” value ([2]; patient two, max peptide 60 SFU)?
Its value is “+ (>70% = +)”.

Which “Dominance scores 18+ yrs” value [1] does the source give for W13 (LQPFPQPELPYLQP) [Peptide W13] here?
Its value is 4.

And the “Dominance score 3-5yrs (n = 9)” value [2]?
Its value is 29.3.

And the “Dominance score 6-10yrs (n = 10)” value [2]?
The value was 32.0.

What about the “Dominance score 11-18yrs (n = 11)” value [2] of the same substance?
Its value is 30.1.

What about the “Dominance score Mean all ages” value [2] of the same substance?
The value was 30.7.

And the “Dominance scores 3-5 yrs” value [2]?
The value was 34.

What about the “Dominance scores 6-10 yrs” value [2] of the same substance?
The value was 32.

What about the “Dominance scores 11-18 yrs” value [2] of the same substance?
The value was 30.

What about the “Dominance scores Mean all ages” value [2] of the same substance?
The value was 32.
